Assay results reported in patent publication US7314744B2, “Hyperthermostable protease gene” (Takara Bio Inc., priority 1995, dated 2008).
Square brackets hold non-standard residues; d marks the D form. Peptide text beside a SMILES is read from it. * marks the point of attachment. Sta = CC(C)C[C@H](N)[C@@H](O)CC(=O)O; Isovaleryl = CC(C)CC(=O)*

What was measured:
[1] = system: enzyme preparation TCES (protease TCES); test: Effects of various reagents on enzyme preparation TCES; type: biochemical, Thermococcus celer; conditions: for effect of reagent on activity of TCES, in words: 37° C., 30 minutes, 1 mM reagent; for enzyme activity of TCES after treatment with reagent, compared with control (no reagent): treated at 37° C. for 30 minutes, reagent final concentration 1 mM, control 100%
Protocol: (§1) The enzyme activity of the enzyme preparation TC-3 obtained in the present invention can be measured using as a substrate Suc-Leu-Leu-Val-Tyr-MCA (SEQ ID NO:43) (manufactured by Peptide Laboratory). That is, the enzyme preparation to be detected for the enzyme activity is appropriately diluted, to 20 μl of the solution is added 80 μl of a 0.1M sodium phosphate buffer (pH 7.0) containing 62.5 μM Suc-Leu-Leu-Val-Tyr-MCA (SEQ ID NO:43), followed by incubating at 75° C. for 30 minutes. After the reaction is stopped by the addition of 20 μl of 30% acetic acid, the fluorescent intensity is measured at the excitation wavelength of 355 nm and the fluorescence wavelength of 460 nm to quantitate an amount of the generated 7-amino-4-methylcoumarin, and the resulting value is compared with that obtained when incubating without the addition of the enzyme preparation, to investigate the enzyme activity.
(§2) The effects of various reagents on the enzyme preparations TCES and NAPS-1 obtained by the present invention were investigated. That is, the above enzyme preparations were treated at 37° C. for 30 minutes in the presence of the various reagents at the final concentration of 1 mM, and an aliquot thereof was taken to determine the enzyme activity by the method described in the above (2) to compare with that (control) when no reagent was added.

[2] = system: enzyme preparation NAPS-1 (protease PFUS); test: Effects of various reagents on enzyme preparation NAPS-1; type: biochemical, Pyrococcus furiosus; conditions: for effect of reagent on activity of NAPS-1, in words: 37° C., 30 minutes, 1 mM reagent; for enzyme activity of NAPS-1 after treatment with reagent, compared with control (no reagent): treated at 37° C. for 30 minutes, reagent final concentration 1 mM, control 100%
Protocol: (§3) In addition, the enzyme activity of the enzyme preparations NP-1, PT-1, NAPS-1 and NAPS-LS can be photometrically measured using Suc-Ala-Ala-Pro-Phe-p-NA (SEQ ID NO:44) (manufactured by Sigma) as a substrate. That is, an enzyme preparation to be detected for the enzyme activity was appropriately diluted, to 50 μl of the solution was added 50 μl of a 0.1M potassium phosphate buffer (pH 7.0) containing Suc-Ala-Ala-Pro-Phe-p-NA (SEQ ID NO:44) (Suc-Ala-Ala-Pro-Phe-p-NA(SEQ ID NO:44) solution), followed by incubating at 95° C. for 30 minutes. After the reaction was stopped by ice-cooling, the absorbance at 405 nm was measured to quantitate an amount of the generated p-nitroaniline, and the resulting value was compared with that when incubating without the addition of the enzyme preparation, to investigate the enzyme activity. Upon this, a 0.2 mM solution of Suc-Ala-Ala-Pro-Phe-p-NA (SEQ ID NO:44) was used for the enzyme preparations NP-1 and PT-1 and a 1 mM solution was used for the enzyme preparations NAPS-1 and NAPS-1S.
as §2

[3] = system: Suc-Leu-Leu-Val-Tyr-MCA; test: Suc-Leu-Leu-Val-Tyr-MCA hydrolyzing activity (fluorescence); type: biochemical; conditions: pH 7.0 and 75° C., 30 minutes
Protocol: as §1
(§4) The activity of the enzyme preparations obtained in the present invention on the synthetic peptide substrates is confirmed by a method for measuring the enzyme activity described in the above (2). […] In addition, the activity of the enzyme preparations obtained in the present invention on gelatin can be detected by confirming the degradation of gelatin by an enzyme on the SDS-polyacrylamide gel. […]

[4] = system: Suc-Ala-Ala-Pro-Phe-p-NA; test: Suc-Ala-Ala-Pro-Phe-p-NA hydrolyzing activity (absorbance at 405 nm); type: biochemical; conditions: pH 7.0 and 95° C., 30 minutes
Protocol: as §3, with “Upon this, a 0.2 mM solution of Suc-Ala-Ala-Pro-Phe-p-NA (SEQ ID NO:44) was used for the enzyme preparations NP-1 and PT-1 and a 1 mM solution was used for the enzyme preparations NAPS-1 and NAPS-1S.” left out
as §4

[5] = system: gelatin; test: Gelatin degradation on gelatin-containing SDS-polyacrylamide gel; type: biochemical; conditions: gel with 0.05% gelatin, pH 7.0, 95° C., 3 hours
Description: The activity of the enzyme preparations obtained in the present invention on the synthetic peptide substrates is confirmed by a method for measuring the enzyme activity described in the above (2). That is, the enzyme preparation TC-3 obtained in the present invention has the Suc-Leu-Leu-Val-Tyr-MCA (SEQ ID NO:43) hydrlyzing activity, and the enzyme preparations NP-1, PT-1, NAPS-1 and NAPS-1A have the Suc-Ala-Ala-Pro-Phe-p-NA (SEQ ID NO:44) hydrlyzing activity, respectively. […] In addition, the activity of the enzyme preparations obtained in the present invention on gelatin can be detected by confirming the degradation of gelatin by an enzyme on the SDS-polyacrylamide gel. That is, the enzyme preparation to be detected for the enzyme activity was appropriately diluted, to 10 μl of the sample solution was added 2.5 μl of a sample buffer (50 mM Tris-HCl, pH 7.5, 5% SDS, 5% 2-mercaptoethanol, 0.005% Bromophenol Blue. 50% glycerol), followed by treatment at 100° C. for 5 minutes and electrophoresis using 0.1% SDS-10% polyacrylamide gel containing 0.05% gelatin. […] The presence of the protease activity was detected by the fact that gelatin is hydrolyzed by a protease into peptides which are diffused out of the gel and, consequently, the relevant portion of the gel was not stained with Coomassie Brilliant Blue.

[6] = system: casein; test: Casein degradation on casein-containing SDS-polyacrylamide gel; type: biochemical; conditions: gel with 0.05% casein, 95° C.
[7] = Thermostability of enzyme preparation (residual activity after heat-treatment); type: physicochemical; conditions: 80° C., 20 mM Tris-HCl pH 7.5, 3 hours
Protocol: The thermostability of the enzyme preparation TC-3 obtained by the present invention was investigated. That is, the enzyme preparation was incubated at 80° C. in 20 mM Tris-HCl, pH 7.5 for various periods of time, an appropriate amount thereof was taken to measure the enzyme activity by the method shown in the above (2), and the activity was compared with that when not heat-treated.
In addition, the thermostability of the enzyme preparation NP-1 obtained in the present invention was investigated. That is, the enzyme preparation was incubated at 95° C. in 20 mM Tris-HCl, pH 7.5 for various periods of time, an appropriate aliquot was taken to determine the enzyme activity by the method shown in the above (2), and the enzyme activity was compared with that when not heat-treated. […] This is considered to be because a protease produced as a precursor causes the self-catalytic activation during the heat-treatment.
In addition, the above enzyme preparation NP-1 activated by the heat-treatment was investigated for the thermostability. That is, the enzyme preparation NP-1 was activated by the heat-treatment at 95° C. for 30 minutes, incubated at 95° C. for various periods of time, and the activity was determined as described above to compare with that when not heat-treated. […]

Row | Molecule | enzyme activity of TCES after treatment with reagent, compared with control (no reagent) [1] [%] | effect of reagent on activity of NAPS-1, in words [2] | enzyme activity of NAPS-1 after treatment with reagent, compared with control (no reagent) [2] [%] | other results
1 | CC(C)C[C@H](NC(=O)[C@@H](NC(=O)N[C@@H](Cc1ccccc1)C(=O)O)[C@@H]1CCN=C(N)N1)C(=O)N[C@H](C=O)Cc1ccccc1 [Chymostatin] | 0 | remarkably decreased activity | 6.6 | effect of reagent on activity of TCES, in words [1]: remarkably decreased activity
2 | O=C(O)CN(CCN(CC(=O)O)CC(=O)O)CC(=O)O [EDTA] | 103.5 | the decrease in the activity was observed | 36.1 | –
3 | CC(=O)N[C@@H](CC(C)C)C(=O)N[C@@H](CC(C)C)C(=O)N[C@H](C=O)CCCNC(=N)N [Leupeptin] | 104.5 | – | 89.3 | –
4 | CCN1C(=O)C=CC1=O [N-ethylmaleimide] | 82.6 | – | 102.6 | –
5 | O=S(=O)(F)Cc1ccccc1 [PMSF, phenylmethanesulfonyl fluoride] | 8.1 | remarkably decreased activity | 0.1 | effect of reagent on activity of TCES, in words [1]: remarkably decreased activity
6 | CC(C)CC(=O)N[C@H](C(=O)N[C@H](C(=O)N[C@@H](CC(C)C)[C@@H](O)CC(=O)N[C@@H](C)C(=O)N[C@@H](CC(C)C)[C@@H](O)CC(=O)O)C(C)C)C(C)C [Pepstatin] (Isovaleryl-VV[Sta]A[Sta]-OH) | 105.2 | – | 100.7 | –
7 | TC-3: crude enzyme preparation of protease TCES (Thermococcus celer) obtained from Bacillus subtilis DB104/pSTC3 (protein) MKRLGAVVLALVLVGLLAGTALAAPVKPVVRNNAVQQKNYGLLTPGLFKKVQRMNWNQEVDTVIMFGSYGDRDRAVKVLRLMGAQVKYSYKIIPAVAVKIKARDLLLIAGMIDTGYFGNTRVSGIKFIQEDYKVQVDDATSVSQIGADTVWNSLGYDGSGVVVAIVDTGIDANHPDLKGKVIGWYDAVNGRSTPYDDQGHGTHVAGIVAGTGSVNSQYIGVAPGAKLVGVKVLGADGSGSVSTIIAGVDWVVQNKDKYGIRVINLSLGSSQSSDGTDSLSQAVNNAWDAGIVVCVAAGNSGPNTYTVGSPAAASKVITVGAVDSNDNIASFSSRGPTADGRLKPEVVAPGVDIIAPRASGTSMGTPINDYYTKASGTSMATPHVSGVGALILQAHPSWTPDKVKTALIETADIVAPKEIADIAYGAGRVNVYKAIKYDDYAKLTFTGSVADKGSATHTFDVSGATFVTATLYWDTGSSDIDLYLYDPNGNEVDYSYTAYYGFEKVGYYNPTAGTWTVKVVSYKGAANYQVDVVSDGSLSQSGGGNPNPNPNPNPTPTTDTQTFTGSVNDYWDTSDTFTMNVNSGATKITGDLTFDTSYNDLDLYLYDPNGNLVDRSTSSNSYEHVEYANPAPGTWTFLVYAYSTYGWADYQLKAVVYYG | – | – | – | Suc-Leu-Leu-Val-Tyr-MCA hydrolyzing activity [3]: had the Suc-Leu-Leu-Val-Tyr-MCA (SEQ ID NO:43) hydrolyzing activity; Suc-Ala-Ala-Pro-Phe-p-NA hydrolyzing activity [4]: the activity to degrade the substrate was recognized; gelatin hydrolyzing activity [5]: had the gelatin hydrolyzing activity; casein hydrolyzing activity (gel) [6]: had the casein hydrolyzing activity; residual activity after heat-treatment [7]: not less than 90%
